These results are taken from ChEMBL document CHEMBL3714729, “Heterocyclic compounds for the inhibition of pask” (2012).

Assay [1] has as its target T1, PAS domain-containing serine/threonine-protein kinase (Homo sapiens, UniProt Q96RG2). Briefly: Inhibition of human recombinant PASK using Ulight-peptide substrate incubated for 2 hrs by TR-FRET assay. For orientation: Time-resolved FRET reads energy transfer from a long-lived donor to a nearby acceptor.
The target of assay [2] is T1, PAS domain-containing serine/threonine-protein kinase. Put plainly: Inhibition of N-terminal GST-tagged human recombinant PASK kinase domain (879 to 1323 residues) expressed in insect cells using MBP protein substrate incubated for 120 mins in presence of [33P]ATP by scintillation counting based radiochemical assay.
For assay [3], the target named is Casein kinase II subunit alpha' (Homo sapiens, UniProt P19784). Put plainly: Inhibition of GST-tagged full-length purified human CK2a2 using RRRDDDSDDD substrate incubated for 120 mins in presence of [33P]ATP by scintillation counting based biochemical assay.
Casein kinase II subunit alpha', sequence (P19784 whole entry): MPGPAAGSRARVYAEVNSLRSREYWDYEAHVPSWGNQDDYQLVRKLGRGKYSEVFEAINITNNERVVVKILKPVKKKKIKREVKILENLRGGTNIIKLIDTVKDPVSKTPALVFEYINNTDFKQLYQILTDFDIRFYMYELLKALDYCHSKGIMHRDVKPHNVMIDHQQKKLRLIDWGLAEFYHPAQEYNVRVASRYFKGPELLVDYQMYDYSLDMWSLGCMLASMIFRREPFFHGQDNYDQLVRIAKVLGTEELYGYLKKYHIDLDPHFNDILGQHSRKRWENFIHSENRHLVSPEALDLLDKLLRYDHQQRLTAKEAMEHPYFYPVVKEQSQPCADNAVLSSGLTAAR

T1 sequence (Q96RG2 whole entry, the tested form may be a part): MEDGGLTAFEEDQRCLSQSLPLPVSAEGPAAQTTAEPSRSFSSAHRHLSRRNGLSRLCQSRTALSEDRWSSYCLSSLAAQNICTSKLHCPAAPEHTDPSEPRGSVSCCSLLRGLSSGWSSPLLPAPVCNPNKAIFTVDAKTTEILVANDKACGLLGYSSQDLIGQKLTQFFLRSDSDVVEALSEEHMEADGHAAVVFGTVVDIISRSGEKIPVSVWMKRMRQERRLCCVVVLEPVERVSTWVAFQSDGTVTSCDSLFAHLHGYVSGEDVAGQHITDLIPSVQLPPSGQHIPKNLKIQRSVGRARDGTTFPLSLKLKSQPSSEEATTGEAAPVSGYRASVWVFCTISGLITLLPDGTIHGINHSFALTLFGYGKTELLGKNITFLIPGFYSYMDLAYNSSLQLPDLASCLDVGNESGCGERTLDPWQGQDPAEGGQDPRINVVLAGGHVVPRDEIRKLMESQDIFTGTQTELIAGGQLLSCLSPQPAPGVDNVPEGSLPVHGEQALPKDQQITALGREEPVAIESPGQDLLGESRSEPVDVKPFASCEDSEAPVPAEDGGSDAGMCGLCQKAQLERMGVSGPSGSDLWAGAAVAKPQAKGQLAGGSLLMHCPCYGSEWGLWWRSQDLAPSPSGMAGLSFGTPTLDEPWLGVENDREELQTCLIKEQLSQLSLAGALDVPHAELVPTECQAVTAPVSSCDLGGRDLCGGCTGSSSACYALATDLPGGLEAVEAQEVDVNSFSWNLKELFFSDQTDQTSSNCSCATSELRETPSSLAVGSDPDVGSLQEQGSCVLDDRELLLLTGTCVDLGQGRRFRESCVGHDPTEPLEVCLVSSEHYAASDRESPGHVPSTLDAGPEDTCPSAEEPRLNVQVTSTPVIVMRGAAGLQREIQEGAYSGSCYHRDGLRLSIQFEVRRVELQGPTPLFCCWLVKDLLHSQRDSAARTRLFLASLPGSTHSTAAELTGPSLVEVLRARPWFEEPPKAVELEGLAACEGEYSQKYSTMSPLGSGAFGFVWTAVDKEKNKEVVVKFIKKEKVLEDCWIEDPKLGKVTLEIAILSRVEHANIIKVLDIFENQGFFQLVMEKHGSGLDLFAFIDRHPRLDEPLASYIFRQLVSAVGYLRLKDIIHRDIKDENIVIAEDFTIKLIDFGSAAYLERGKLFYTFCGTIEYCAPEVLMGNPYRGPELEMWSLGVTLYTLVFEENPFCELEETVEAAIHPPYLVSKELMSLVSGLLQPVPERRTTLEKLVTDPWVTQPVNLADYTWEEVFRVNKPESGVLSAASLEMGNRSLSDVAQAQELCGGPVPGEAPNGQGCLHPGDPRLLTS

A word on the IC50: it is the concentration that inhibits the measured activity by half. Take `COc1cc2[nH]nnc2cc1-c1cc(=O)n2nc(O)c(-c3ccccn3)c2[nH]1`: in assay [1], the half-inhibitory concentration (IC50) is no more than 10 µM.

Regarding `O=c1cc(-c2ccc3c(c2)OCCO3)[nH]c2c(-c3ccccc3)c(O)nn12`, the half-maximal inhibitory concentration (IC50) in assay [2] and in assay [1] was no more than 10 µM throughout.

For `Cc1nn2c(=O)cc(-c3ccc4c(c3)OCCO4)[nH]c2c1-c1ccccn1`, in assay [3], the IC50 is no more than 10 µM.

For `O=c1cc(-c2ccccn2)[nH]c2c(-c3ccc(F)cc3)cnn12`, the IC50 in assay [2] and in assay [3] was no more than 10 µM each time.

As to `CNC(=O)Oc1ccc(-c2cc(=O)n3nc(C)c(-c4ccccn4)c3[nH]2)cc1`, the IC50 in assay [1] is no more than 10 µM.

Regarding `COc1c(-c2cc(=O)n3nc(O)c(-c4ccccn4)c3[nH]2)ccc2[nH]nnc12`, the IC50 in assay [1] was no more than 10 µM.

Regarding `O=c1cc(-c2ccc3c(c2)OCCO3)[nH]c2c(-c3cccnc3)cnn12`, in assay [3], the IC50 is no more than 10 µM.

Regarding `O=c1cc(-c2ccc3[nH]nnc3c2)[nH]c2c(-c3ccccc3)c(O)nn12`, the IC50 in assay [1] was no more than 10 µM.

As for `COc1ccc(-c2cc(=O)n3nc(C)c(Cc4ccccc4)c3[nH]2)cc1OC`, the IC50 in assay [3] was no less than 10 µM.

With `O=c1cc(-c2ccc3cc[nH]c3c2)[nH]c2c(-c3ccccc3)cnn12`, the half-inhibitory concentration (IC50) in assay [2], in assay [1] and in assay [3] was no more than 10 µM each time.

As for `Cc1nn2c(=O)cc(-c3ccc4ncccc4c3)[nH]c2c1Cc1ccccc1`, the concentration for half-maximal inhibition (IC50) in assay [2], in assay [1] and in assay [3] was no more than 10 µM in each case.

Take `O=c1cc(-c2cc3ccccc3o2)[nH]c2c(-c3ccccn3)cnn12`: the IC50 in assay [2], in assay [1] and in assay [3] was no more than 10 µM each time.

For the compound `Cc1nn2c(=O)cc(-c3ccc4c(c3OC(C)C)OCO4)[nH]c2c1-c1ccccn1`, in assay [1], the IC50 was no more than 10 µM.

For `CNC(=O)Oc1ccc(-c2cc(=O)n3ncc(-c4ccccn4)c3[nH]2)cc1`, in assay [1], the IC50 is no more than 10 µM.

On to `Cc1c(-c2cc(=O)n3nc(O)c(-c4ccccn4)c3[nH]2)ccc2c1OCO2`, for which the IC50 in assay [1] is no more than 10 µM.

In the case of `COc1cccc(-c2cc(=O)n3nc(C)c(Cc4ccc(Cl)cc4)c3[nH]2)c1`, the half-maximal inhibitory concentration (IC50) in assay [3] was no less than 10 µM.

Consider `O=c1cc(-c2ccc3c(c2)CCO3)[nH]c2c(-c3ccccc3)cnn12`, for which the IC50 in assay [2], in assay [1] and in assay [3] was no more than 10 µM each time.

Regarding `O=c1cc(-c2ccc3c(c2)CCO3)[nH]c2c(-c3cccnc3)cnn12`, the IC50 in assay [2], in assay [1] and in assay [3] was no more than 10 µM throughout.

As to `COc1cccc(-c2cnn3c(=O)cc(-c4ccc5c(c4)OCCO5)[nH]c23)c1`, the concentration for half-maximal inhibition (IC50) in assay [2], in assay [1] and in assay [3] was no more than 10 µM each time.

With `COc1c(-c2cc(=O)n3nc(C)c(-c4ccccn4)c3[nH]2)ccc2[nH]nnc12`, in assay [1], the IC50 was no more than 10 µM.

For `Cc1c(-c2cc(=O)n3nc(N)c(-c4ccccn4)c3[nH]2)ccc2[nH]nnc12`, the IC50 in assay [1] is no more than 10 µM.

For `Cc1nn2c(=O)cc(-c3ccc4c(c3)OCCO4)[nH]c2c1-c1ccc(F)cc1`, the half-maximal inhibitory concentration (IC50) in assay [2], in assay [1] and in assay [3] was no more than 10 µM throughout.

Consider `Cc1nn2c(=O)cc(-c3cccnc3)[nH]c2c1-c1ccc(F)cc1`, for which the IC50 in assay [2] and in assay [3] was no more than 10 µM throughout.

As to `O=c1cc(-c2ccc3c(c2)OCCO3)[nH]c2c(-c3cccc(F)c3)cnn12`, the IC50 in assay [1] and in assay [3] was no more than 10 µM throughout.

`COc1ccc(-c2cc(=O)n3ncc(-c4ccccn4)c3[nH]2)cc1OC`: the half-inhibitory concentration (IC50) in assay [2], in assay [1] and in assay [3] was no more than 10 µM in each case.

In the case of `O=c1cc(-c2ccc3c(c2)OCCO3)[nH]c2c(-c3ccc(N4CCCCC4)nc3)cnn12`, the IC50 in assay [1] and in assay [3] was no more than 10 µM throughout.

As to `Cc1c(-c2cc(=O)n3nc(O)c(-c4ccccn4)c3[nH]2)ccc2[nH]nnc12`, in assay [1], the IC50 was no more than 10 µM.

In the case of `Cc1cc2[nH]nnc2cc1-c1cc(=O)n2ncc(-c3ccccn3)c2[nH]1`, in assay [1], the IC50 is no more than 10 µM.

Consider `CCCc1c(C)nn2c(=O)cc(-c3ccc(OC)cc3)[nH]c12`, for which the values for the concentration for half-maximal inhibition (IC50) in assay [2], in assay [1] and in assay [3] were no more than 10 µM, no more than 10 µM and no less than 10 µM, respectively.

Regarding `COc1ccc(-c2cc(=O)n3ncc(-c4ccccn4)c3[nH]2)cc1`, the 50% inhibitory concentration (IC50) in assay [3] is no more than 10 µM.

For the compound `O=C(NCc1ccccc1)c1cnn2c(=O)cc(-c3ccc4c(c3)OCCO4)[nH]c12`, the IC50 in assay [2] and in assay [1] was no more than 10 µM each time.

`O=c1cc(-c2ccc3c(c2)CCO3)[nH]c2c(-c3ccccn3)cnn12`: the IC50 in assay [2], in assay [1] and in assay [3] was no more than 10 µM in each case.

In the case of `O=c1cc(-c2ccc3c(c2)OCO3)[nH]c2c(-c3cccnc3)c(O)nn12`, the IC50 in assay [2], in assay [1] and in assay [3] was no more than 10 µM each time.

Turning to `CN1CCN(C(=O)c2cnn3c(=O)cc(-c4ccc5c(c4)OCCO5)[nH]c23)CC1`, the IC50 in assay [2] and in assay [1] was no more than 10 µM throughout.

Take `Cc1nn2c(=O)cc(-c3ccc4[nH]nnc4c3)[nH]c2c1-c1ccc(Cl)cc1`: the IC50 in assay [1] was no more than 10 µM.

As to `O=c1cc(-c2ccc3c(c2)OCCO3)[nH]c2c(-c3ccccc3)cnn12`, in assay [3], the IC50 was no more than 10 µM.

In the case of `O=c1cc(-c2ccc3c(c2)OCO3)[nH]c2c(-c3ccccn3)cnn12`, in assay [3], the half-inhibitory concentration (IC50) is no more than 10 µM.

Consider `Cc1cc2[nH]nnc2cc1-c1cc(=O)n2nc(N)c(-c3ccccn3)c2[nH]1`, for which, in assay [1], the IC50 was no more than 10 µM.

Consider `Cc1c(-c2cc(=O)n3nc(N)c(-c4ccccn4)c3[nH]2)ccc2c1OCO2`, for which, in assay [1], the IC50 was no more than 10 µM.

Take `CC(C)Oc1c(-c2cc(=O)n3ncc(-c4ccccn4)c3[nH]2)ccc2c1OCO2`: the IC50 in assay [1] is no more than 10 µM.

As to `Cc1cc2[nH]nnc2cc1-c1cc(=O)n2nc(O)c(-c3ccccn3)c2[nH]1`, in assay [1], the half-inhibitory concentration (IC50) is no more than 10 µM.

With `Cc1nn2c(=O)cc(-c3ccccc3)[nH]c2c1Cc1ccc(Cl)cc1`, in assay [3], the IC50 is no more than 10 µM.

Turning to `O=c1cc(-c2ccc3c(c2)OCCO3)[nH]c2c(-c3ccccn3)c(O)nn12`, the IC50 in assay [2] and in assay [1] was no more than 10 µM each time.

Turning to `COc1ccc(-c2cc(=O)n3ncc(-c4ccc(F)cc4)c3[nH]2)cc1`, the half-maximal inhibitory concentration (IC50) in assay [3] was no more than 10 µM.

`Cc1nn2c(=O)cc(-c3ccc4cc[nH]c4c3)[nH]c2c1Cc1ccccc1`: the half-inhibitory concentration (IC50) in assay [3] was no less than 10 µM.

Consider `COc1ccc(-c2cc(=O)n3ncc(-c4ccccn4)c3[nH]2)c(OC)c1`, for which the 50% inhibitory concentration (IC50) in assay [2] and in assay [1] was no more than 10 µM in each case.

Turning to `Cc1nn2c(=O)cc(-c3ccc(OC(C)C)cc3)[nH]c2c1Cc1ccc(Cl)cc1`, in assay [3], the IC50 was no less than 10 µM.

For `Cc1nn2c(=O)cc(-c3ccc(C(F)(F)F)cc3)[nH]c2c1Cc1ccc(Cl)cc1`, the IC50 in assay [3] was no less than 10 µM.

Turning to `Cc1nn2c(=O)cc(-c3ccc4c(c3)CCO4)[nH]c2c1-c1ccccc1`, the IC50 in assay [3] is no more than 10 µM.

As to `Cc1nn2c(=O)cc(-c3ccc4c(c3)OCCO4)[nH]c2c1-c1cccnc1`, the IC50 in assay [3] was no more than 10 µM.

`Cc1nn2c(=O)cc(-c3ccc4c(c3)OCO4)[nH]c2c1-c1ccccc1`: the IC50 in assay [3] was no more than 10 µM.

As for `O=c1cc(-c2ccc3c(c2)OCCO3)[nH]c2c(-c3ccccn3)cnn12`, in assay [3], the IC50 is no more than 10 µM.

Take `Cc1nn2c(=O)cc(-c3ccc4c(c3)OCO4)[nH]c2c1Cc1cccc(Cl)c1`: the IC50 in assay [2], in assay [1] and in assay [3] was no more than 10 µM each time.

On to `O=c1cc(-c2ccc(Cl)cc2)[nH]c2c(-c3ccccn3)cnn12`, for which the IC50 in assay [2] and in assay [1] was no more than 10 µM throughout.

Take `Cc1nn2c(=O)cc(-c3ccc4c(c3C)OCO4)[nH]c2c1-c1ccccn1`: the 50% inhibitory concentration (IC50) in assay [1] was no more than 10 µM.

On to `COc1ccc(-c2cc(=O)n3nc(C)c(Cc4ccc(Cl)cc4)c3[nH]2)cc1OC`, for which the half-inhibitory concentration (IC50) in assay [3] was no less than 10 µM.

Turning to `O=C(c1cnn2c(=O)cc(-c3ccc4c(c3)OCCO4)[nH]c12)N1CCOCC1`, the IC50 in assay [2] and in assay [1] was no more than 10 µM each time.

In the case of `COc1c(-c2cc(=O)n3ncc(-c4ccccn4)c3[nH]2)ccc2c1OCO2`, the concentration for half-maximal inhibition (IC50) in assay [1] is no more than 10 µM.

Regarding `COC(=O)c1ccc(-c2cc(=O)n3nc(C)c(Cc4ccc(Cl)cc4)c3[nH]2)cc1`, the IC50 in assay [3] is no less than 10 µM.

Regarding `COc1c(-c2cc(=O)n3nc(N)c(-c4ccccn4)c3[nH]2)ccc2[nH]nnc12`, in assay [1], the IC50 is no more than 10 µM.

For `O=c1cc(-c2ccc3occc3c2)[nH]c2c(-c3ccccc3)cnn12`, the IC50 in assay [2], in assay [1] and in assay [3] was no more than 10 µM each time.

With `Cc1nn2c(=O)cc(-c3ccc4[nH]nnc4c3C)[nH]c2c1-c1ccccn1`, the half-maximal inhibitory concentration (IC50) in assay [1] was no more than 10 µM.

As to `COc1ccc(-c2cc(=O)n3nc(C)c(Cc4ccccc4Cl)c3[nH]2)cc1`, the IC50 in assay [1] was no more than 10 µM; in assay [3] it was no less than 10 µM.

As for `Cc1nn2c(=O)cc(-c3ccc4c(c3)OCO4)[nH]c2c1Cc1ccc(Cl)cc1`, the IC50 in assay [2], in assay [1] and in assay [3] was no more than 10 µM each time.

For the compound `CCCNC(=O)c1c(O)nn2c(=O)cc(-c3ccc4[nH]nnc4c3)[nH]c12`, in assay [1], the half-maximal inhibitory concentration (IC50) was no more than 10 µM.

In the case of `Cc1nn2c(=O)cc(-c3ccc4c(c3)OCO4)[nH]c2c1-c1ccccn1`, the 50% inhibitory concentration (IC50) in assay [3] is no more than 10 µM.

For `Cc1nn2c(=O)cc(-c3ccc(C(N)=O)cc3)[nH]c2c1Cc1ccc(Cl)cc1`, the 50% inhibitory concentration (IC50) in assay [3] is no less than 10 µM.

`COc1ccc(-c2cc(=O)n3ncc(-c4cccnc4)c3[nH]2)cc1`: the 50% inhibitory concentration (IC50) in assay [2], in assay [1] and in assay [3] was no more than 10 µM throughout.

For `CCCNC(=O)c1c(N)nn2c(=O)cc(-c3ccc4c(c3)OCCO4)[nH]c12`, the half-maximal inhibitory concentration (IC50) in assay [1] is no more than 10 µM.

As for `O=c1cc(-c2ccc(-c3nnco3)cc2)[nH]c2c(-c3ccccn3)cnn12`, the 50% inhibitory concentration (IC50) in assay [1] is no more than 10 µM.

In the case of `Cc1c(-c2cc(=O)n3ncc(-c4ccccn4)c3[nH]2)ccc2c1OCO2`, the half-inhibitory concentration (IC50) in assay [1] is no more than 10 µM.

Consider `N#Cc1cnn2c(=O)cc(-c3ccc4c(c3)OCCO4)[nH]c12`, for which the 50% inhibitory concentration (IC50) in assay [2], in assay [1] and in assay [3] was no more than 10 µM each time.

As for `Cc1nn2c(=O)cc(-c3ccccc3)[nH]c2c1Cc1ccccc1`, the IC50 in assay [3] is no less than 10 µM.
